Test results as given in EP2114888B1, “TRICYCLIC COMPOUNDS AND THEIR USE AS GLUCOCORTICOID RECEPTOR MODULATORS” (priority 2007, dated 2008).

Key:
[1] = Oral dosing in portal vein-cannulated rats, portal vein plasma; type: in vivo; details: oral dosing 30 and 200 mg/kg, over a four-hour time period
[2] = Oral absorption profile, time to Cmax in dogs; details: dog, in vivo
[3] = Solubility and intrinsic dissolution; type: physicochemical
[4] = target: full-length glucocorticoid (GR) protein; experiment: Glucocorticoid receptor fluorescence polarization ligand binding (GRFP) assay; details: additional result (footnote a)
Excerpt: The glucocorticoid receptor fluorescence polarization ligand binding (GRFP) assay is used to evaluate direct binding of testing compounds to full-length glucocorticoid (GR) protein. Reagents for this assay are purchased from Invitrogen in a test kit. A fluorescent labeled GR ligand is used as a fluorescent tracer and test compounds compete with the fluorescent tracer for GR binding. The change in polarization value in the presence of test compounds is due to binding of test compounds to GR and is used to determine IC50 and relative binding affinity of test compounds for GR.

[5] = test system: IL-6; experiment: IL-1β-stimulated IL-6 production in A549 lung epithelial cells; type: cell-based, Human
Protocol: Human A549 lung epithelial cells (American Type Culture Collection, Rockville, MD) were cultured in Kaighn's F-12K medium with penicillin-streptomycin (10 U/mL) and 10% heat-inactivated fetal bovine serum (all from Invitrogen, Grand Island, NY). A549 cells were plated at a density of 30,000 cells/well in 96-well plates and incubated overnight at 37°C and with 5% CO2. The cells were serum-starved by replacing the growth medium with serum-free Kaighn's F-12K medium with penicillin-streptomycin (10 U/mL) and, again, incubating overnight at 37°C and with 5% CO2. On the third day, the medium was replaced with fresh serum-free medium and the cells were incubated with or without compound (vehicle was DMSO at 0.1 % maximum concentration) for approximately 1 hour and then stimulated with 1 ng/mL recombinant human IL-1β (R&D Systems, Minneapolis, MN) for 20 hours at 37°C and with 5% CO2. Cell supernatants were collected for determination of IL-6 levels using MSD (Meso Scale Discovery, Gaithersburg, MD) 96-well Single Spot plates as per the manufacturer's instructions. Plates were read with an MSD Sector Imager 6000. […] Percent inhibition for each compound concentration, relative to these controls, was calculated using Excel (Microsoft, Redmond, WA). IC50 values were generated using GraFit 5.0 data analysis software (Erithacus Software Ltd., Surrey, UK).

[6] = test system: Caco-2 cell monolayer
Excerpt: (§1) The Caco-2 cell monolayer is an in vitro tissue culture model of the intestinal epithelium. These cells are of human colonic origin and become polarized, fully differentiated enterocytes in 2-3 weeks. Once differentiated, these cells have tight junctions and express various biochemical processes such as active efflux transporters including P-glycoprotein (P-gp). With this model, it is possible to determine the apparent permeability (Papp) of a compound across the polarized Caco-2 cell monolayer.
(§2) An A→B Assay is performed with Caco-2 cell monolayers to determine compound Papp from A chamber to B chamber. This Papp is representative of luminal (gut) to serosal (blood) compound transport across intestinal epithelium that may be seen during intestinal absorption.

[7] = in vivo; details: rat, po
[8] = Oral absorption profile in rats
[9] = Caco-2 cell monolayer A→B permeability assay; details: human
Excerpt: as §1, §2

Question: With Cc1ncccc1NC(=O)c1ccc2c(c1)CC[C@@H]1C[C@@](OP(=O)(O)O)(C(F)(F)F)CC[C@@]21Cc1ccccc1 [Example 2, (2R,4αS,10αR)-4α-benzyl-7-((2-methylpyridin-3-yl)carbamoyl)-2-(trifluoromethyl)-1,2,3,4,4α,9,10,10α-octahydrophenanthren-2-yl dihydrogen phosphate] as the compound, how does the “detection in portal vein plasma samples” value [1] read?
Answer: detection of Example 1, but not Example 2

Question: What about the Tmax [2] of the same compound?
Answer: 48 min

Question: What about the “solubility and intrinsic dissolution” value [3] of the same compound?
Answer: enhanced solubility and intrinsic dissolution

Question: What about the IC50 [4] of the same compound?
Answer: 42 nM

Question: What about the “IL-6 % Inhibition” value ([5]; A549 cells, additional result (footnote a)) of the same compound?
Answer: 80%

Question: What about the inhibition ([5]; Homo sapiens, A549) of the same compound?
Answer: 60.2%

Question: And the IC50 ([5]; Homo sapiens, A549 cells, additional result (footnote a))?
Answer: 17 nM

Question: And the “Example 1 in apical and basolateral compartments” value [6]?
Answer: significant elevation of Example 1 in both the apical and basolateral compartments

Question: What about the AUC [7] of the same compound?
Answer: 1610 ng·h/mL

Question: And the “bioavailability F” value [8]?
Answer: 59%

Question: And the Cmax ([8]; oral)?
Answer: 590 ng/mL

Question: What about the Papp A→B [9] of the same compound?
Answer: 1.15 ×10⁻⁶ cm/s
